Measured values reported in patent publication US9597407B2, “Targeted antimicrobial moieties” (C3 Jian, Inc., priority 2009, dated 2017).
Entries after “also recorded” stand apart in the source; their conditions may differ.

Columns and labels:
[1] = test system: microorganisms; test: Peptide activities: binding, antimicrobial, growth or phenotype altering (Table 8)
From the text: In certain embodiments, peptides described herein can have multiple activities. Thus for example, a peptide can have both binding/targeting activity and antimicrobial activity. Such peptides can be used, e.g., in a chimeric construct, for any or all of these properties. Thus, for example, a peptide designated “B” in Table 8 can be used as a targeting peptide. If it is also designated G or M it can also be used for antimicrobial activity.

[2] = test system: bacteria; test: Binding of targeting peptides to microorganisms (Table 3); details: preferably 1x PBS; for Target(s) (microorganism bound by the targeting peptide) / Target(s) (microorganisms bound by the targeting peptide): peptide binding in aqueous buffers that varied depending on peptide solubility
[3] = test system: microorganisms; test: Morphology, biofilm and growth disruption by peptides (Table 5); format: cell-based; parameters: key: A: Peptide aggregates; B: Less hyphal formation; Clumps; Diffuse clumps and small polyps; F: Diffuse growth; H: Thin; I: Growth inhibition; Microcolony formation; Rippled; Small polyps; Thick; W: Halo formation on top, microlonies on bottom
From the text: In certain embodiments peptides that induce alterations in phenotype or other biological activities can also be used as antimicrobial effector moieties.

[4] = microorganism the targeting peptide binds, binding in aqueous buffers that varied with peptide solubility

Row | Substance | Activities [1] | Organism, effect (morphology, biofilm and growth disruption) ([3]; E. faecalis) | Organism, effect (morphology, biofilm and growth disruption) ([3]; MRSA) | Organism, effect (morphology, biofilm and growth disruption) ([3]; S. epidermidis) | Organism, effect (morphology, biofilm and growth disruption) ([3]; S. pneumoniae) | Target(s) (microorganisms bound by the targeting peptide) [2] | Organism, effect (morphology, biofilm and growth disruption) ([3]; C. jejuni) | Organism, effect ([3]; MRSA) | further results
1 | PF-627 (chain 1 INDLLSYFTLHEK; chain 2 INDLLSYFTLHEK; Peptide with targeting and/or antimicrobial activity) | G B | E. faecalis (H) | MRSA (R) | S. epidermidis (H) | S. pneumoniae (I) |  |  |  | Target(s) (microorganism bound by the targeting peptide) [2]: S. epidermidis and P. aeruginosa and MRSA and S. pneumoniae and E. faecalis and C. jeikeium; Organism, effect (morphology, biofilm and growth disruption) ([3]; C. albicans): C. albicans (B)
2 | PF-563 (RPELDNELDVVQNSASLDKLQASYN; Peptide with targeting and/or antimicrobial activity) | G B |  |  |  | S. pneumoniae (H) | S. epidermidis; also recorded: M. luteus; also recorded: C. jeikeium | C. jejuni (H) |  | Organism, effect (morphology, biofilm and growth disruption) ([3]; B. subtilis): B. subtilis (D)
3 | PF-616 (chain 1 IVFVVTKEKK; chain 2 IVFVVTKEKK; Peptide with targeting and/or antimicrobial activity) | G B | E. faecalis (A) |  | S. epidermidis (R) |  |  |  |  | Target(s) (microorganism bound by the targeting peptide) [2]: C. jeikeium
4 | PF-373 (HFYLLFER; Peptide with targeting and/or antimicrobial activity) | G B |  |  |  |  |  |  | MRSA (M) | Target(s) ([2]; microorganism bound by the targeting peptide, binding in aqueous buffers chosen by peptide solubility): S. epidermidis and E. coli and P. aeruginosa and C. albicans and MRSA and E. faecalis and C. jejuni; Organism, effect ([3]; S. epidermidis): S. epidermidis (M)
5 | PF-011 (MFCYYKQHKGDNFSIEEVKNIIADNEMKVN; Peptide with targeting and/or antimicrobial activity) | G B |  |  |  |  |  |  | MRSA (R) | Target(s) [2, 4]: M. luteus; also recorded: E. coli; also recorded: P. aeruginosa; also recorded: S. pneumoniae; also recorded: C. jeikeium; Organism, effect ([3]; C. jeikeium): C. jeikeium (C)
6 | PF-017 (ESIIE; Peptide with targeting and/or antimicrobial activity) | G B |  |  |  |  |  |  | MRSA (M) | Target(s) [2, 4]: E. coli
7 | PF-484 (HKKDIRKQVFKN; Peptide with targeting and/or antimicrobial activity) | G B | E. faecalis (A) |  |  |  | S. epidermidis; also recorded: M. luteus; also recorded: P. mirabilis; also recorded: E. coli; also recorded: E. faecalis; also recorded: C. jeikeium; also recorded: C. jejuni |  |  | 
8 | PF-560 (FGNPFRGFTLAMEADFKKRK; Peptide with targeting and/or antimicrobial activity) | G B |  | MRSA (C) |  | S. pneumoniae (R) | S. epidermidis; also recorded: M. luteus; also recorded: E. coli; also recorded: S. pneumoniae; also recorded: C. jeikeium; also recorded: C. jejuni | C. jejuni (A) |  | Organism, effect (morphology, biofilm and growth disruption) ([3]; B. subtilis): B. subtilis (D)
9 | PF-576 (AYSGELPEPLVRKMSKEQVRSVMGK; Peptide with targeting and/or antimicrobial activity) | G B |  | MRSA (R) | S. epidermidis (A) | S. pneumoniae (C) | M. luteus; also recorded: P. mirabilis; also recorded: E. coli; also recorded: P. aeruginosa; also recorded: C. albicans; also recorded: S. pneumoniae | C. jejuni (C) |  | Organism, effect (morphology, biofilm and growth disruption) ([3]; E. coli): E. coli (A)
